According to the NIST ThermoML archive (doi:10.1007/s10765-006-0095-5):
± gives the expanded uncertainty stated by the source.

Tests used:
[1] = 101 kPa, Liquid
[2] = refractive index (Na D-line) (dimensionless); conditions: 101.33 kPa, Liquid
[3] = xn = mol fraction of the nth substance listed; conditions: 101 kPa, Liquid, x1 = 1

Row | Compound | mass density ([1]; 298.15 K) [kg/m3] | mass density ([1]; 303.15 K) [kg/m3] | mass density ([1]; 308.15 K) [kg/m3] | mass density ([1]; 313.15 K) [kg/m3] | mass density ([1]; 318.15 K) [kg/m3] | refractive index ([2]; 298.15 K) | refractive index ([2]; 303.15 K) | refractive index ([2]; 308.15 K) | refractive index ([2]; 313.15 K) | refractive index ([2]; 318.15 K) | mass density ([3]; 298.15 K) [kg/m3] | mass density ([3]; 303.15 K) [kg/m3] | mass density ([3]; 308.15 K) [kg/m3] | mass density ([3]; 313.15 K) [kg/m3] | mass density ([3]; 318.15 K) [kg/m3]
1 | CCN(CC)CC [triethylamine] | 723.4 ± 1.9 | 717.9 ± 2.1 | 712.9 ± 2.2 | 708.3 ± 2.3 | 701.6 ± 2.4 | 1.4011 ± 0.0019 | 1.3983 ± 0.0019 | 1.395 ± 0.0019 | 1.3928 ± 0.0019 | 1.3898 ± 0.0019 |  |  |  |  | 
2 | CCCCN(CCCC)CCCC [tributylamine] | 774.3 ± 2.1 | 770.8 ± 2.3 | 767.2 ± 2.4 | 763.6 ± 2.5 | 759.8 ± 2.6 | 1.4274 ± 0.0019 | 1.4259 ± 0.0019 | 1.4231 ± 0.0019 | 1.421 ± 0.0019 | 1.4188 ± 0.0019 |  |  |  |  | 
3 | c1ccccc1 [benzene] + CCCCN(CCCC)CCCC |  |  |  |  |  |  |  |  |  |  | 873.6 ± 2.5 | 870.8 ± 2.6 | 865.7 ± 2.7 | 861 ± 2.9 | 856.3 ± 3
4 | c1ccccc1 [benzene] | 873.6 ± 2.5 | 870.8 ± 2.6 | 865.7 ± 2.7 | 861 ± 2.9 | 856.3 ± 3 | 1.4979 ± 0.0019 | 1.4962 ± 0.0019 | 1.4944 ± 0.0019 | 1.4929 ± 0.0019 | 1.4911 ± 0.0019 |  |  |  |  | 
5 | c1ccccc1 [benzene] + CCN(CC)CC |  |  |  |  |  |  |  |  |  |  | 873.6 ± 2.5 | 870.8 ± 2.6 | 865.7 ± 2.7 | 861 ± 2.9 | 856.3 ± 3
